Common to all, as to format: cell-based
Experiment [1] relates to HTT mRNA. Kind of experiment: Splicing RT-qPCR assay (THP), Table 2A. Background: Quantitative PCR measures a nucleic acid by following its amplification.
Experiment [2] concerns MYB mRNA. Kind of experiment: Splicing RT-qPCR assay (THP), Table 2A.
For experiment [3], the system named is HTT mRNA. The experiment in a line: Gene panel canonical junction qPCR assay, decrease in CJ mRNA, Table 3. The settings on record: decrease in canonical junction (CJ) mRNA, gene panel qPCR, Table 3. The method, boiled down: (§1)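 IC50 denotes the concentration giving 50% decrease in canonical-junction mRNA, fitted by 4-parameter logistic to percentage response derived from ΔΔCt versus housekeeping gene and DMSO control. Cells (A673 or K562) exposed 24 h to 11-point 3-fold serial dilutions from 10 uM top, DMSO ≤0.25%; junction-spanning primer/probe qPCR.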

The test system of experiment [4] is MYB mRNA. The description is as above. To be noted: decrease in canonical junction (CJ) mRNA, gene panel qPCR, Table 3. A digest of the protocol: as §1
Experiment [5] has as its system SH-SY5Y (human neuroblastoma) cells. The experiment in a line: Cell viability, Cell Titer Glo 2.0 assay. To be noted: read-out: Viability SHSY5Y.3 GI50. The method, boiled down:
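Viability was read by CellTiter-Glo 2.0 luminescence after a 72-hour compound exposure at 37° C. under 5% CO2. Cells were in IMDM plus 10% FBS containing 0.1% DMSO, and medium-only wells gave the blank.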

[6] abbreviates: Table 2A (THP), AJ mRNA increase, read-out: HTT AJ (increase in alternative junction mRNA, AC50).
[7] abbreviates: Table 2A (THP), CJ mRNA decrease, read-out: HTT CJ (decrease in canonical junction mRNA, IC50).
[8] abbreviates: Table 2A (THP), AJ mRNA increase, read-out: MYB AJ (increase in alternative junction mRNA, AC50).
The mark [9] stands for this setting: Table 2A (THP), CJ mRNA decrease, read-out: MYB CJ (decrease in canonical junction mRNA, IC50).
[10] abbreviates: Table 2A, THP, HTT alternative junction (AJ) mRNA, read-out: HTT AJ (AC50, increase in alternative junction mRNA).
[11] abbreviates: Table 2A, THP, HTT canonical junction (CJ) mRNA, read-out: HTT CJ (IC50, decrease in canonical junction mRNA).
The mark [12] stands for this setting: Table 2A, THP, MYB alternative junction (AJ) mRNA, read-out: MYB AJ (AC50, increase in alternative junction mRNA).
[13] abbreviates: Table 2A, THP, MYB canonical junction (CJ) mRNA, read-out: MYB CJ (IC50, decrease in canonical junction mRNA).

Each structure is given as a SMILES string. Read-outs that look alike come from different tables or passages of the source.

As a reminder, the AC50 is the concentration giving half of the maximal activity seen. The term IC50 denotes the midpoint of a concentration-inhibition curve. One may read the GI50 as the concentration giving 50% growth inhibition. Regarding `CCNC1CC2(C1)CN(c1ccc(C(=O)Nc3cc4cn(C)nc4cc3OC)c3nn(C)cc13)C2` [Compound 578], the AC50 in experiment [1] (setting [6]) and in experiment [2] (setting [8]) was 0.1 to 1 µM in each case. The IC50 in experiment [1] (setting [7]), in experiment [2] (setting [9]), in experiment [3] and in experiment [4] was 0.1 to 1 µM throughout. In addition, in experiment [5], the GI50 is 0.1 to 1 µM.

In the case of `Cc1cn2cc(NC(=O)c3ccc(N4CCC(NC5CC5)CC4)c4cn(C)nc34)nc2c(-c2cnn[nH]2)n1` [Compound 579, 4-(4-(cyclopropylamino)piper-idin-1-yl)-2-methyl-N-(6-methyl-8-(1H-1,2,3-triazol-5-yl)-imidazo[1,2-a]pyrazin-2-yl)-2H-indazole-7-carbox-amide 2,2,2-trifluoroacetate], the AC50 in experiment [1] (setting [6]) and in experiment [2] (setting [8]) was more than 10 µM each time. The IC50 in experiment [1] (setting [7]), in experiment [2] (setting [9]), in experiment [3] and in experiment [4] was more than 10 µM each time. Also, the GI50 in experiment [5] was more than 10 µM.

Turning to `Cc1cn2cc(NC(=O)c3ccc(N4CCC(N)CC4)c4cn(C)nc34)c(F)c2c(C)n1` [Compound 580, 4-(4-amino-1-piperidyl)-N-(8-fluoro-1,3-dimethyl-pyrrolo[1,2-a]-pyrazin-7-yl)-2-methyl-indazole-7-carboxamide], the AC50 is more than 10 µM in experiment [1] (setting [6]) and 1 to 10 µM in experiment [2] (setting [8]). The IC50 in experiment [1] (setting [7]) is more than 10 µM; in experiment [2] (setting [9]), 1 to 10 µM; in experiment [3], more than 10 µM; in experiment [4] it was 1 to 10 µM. In addition, in experiment [5], the GI50 was in the range of 0.1 to 1 µM.

Consider `CNC1CCN(c2ccc(C(=O)Nc3cn4cc(C)nc(C)c4c3F)c3nn(C)cc23)CC1` [Compound 581, N-(8-fluoro-1,3-dimethyl-pyrrolo[1,2-a]-pyrazin-7-yl)-2-methyl-4-[4-(methylamino)-1-piperidyl]indazole-7-carboxamide], for which the values for the AC50 in experiment [1] (setting [6]) and in experiment [2] (setting [8]) were more than 10 µM and 1 to 10 µM, respectively. The IC50 in experiment [1] (setting [7]) was more than 10 µM; in experiment [2] (setting [9]), 1 to 10 µM; in experiment [3], more than 10 µM; in experiment [4], 1 to 10 µM. Moreover, the GI50 in experiment [5] is 1 to 10 µM.

For `Cc1cc2[nH]c(NC(=O)c3ccc(N4CCC(NC5CC5)CC4)c4cn(C)nc34)nc2c(C)n1` [Compound 582, 4-[4-(cyclopropylamino)-1-piperidyl]-N-(4,6-dimethyl-1H-imidazo[4,5-c]pyridin-2-yl)-2-methyl-indazole-7-carboxamide], the AC50 in experiment [1] (setting [6]) and in experiment [2] (setting [8]) was more than 10 µM in each case. In addition, the IC50 in experiment [1] (setting [7]), in experiment [2] (setting [9]), in experiment [3] and in experiment [4] was more than 10 µM in each case. In addition, the GI50 in experiment [5] was 1 to 10 µM.

With `CCNC1CCN(c2ccc(C(=O)Nc3nc4c(C)nc(C)cc4n3C)c3nn(C)cc23)CC1` [Compound 583, 4-[4-(ethylamino)-1-piperidyl]-2-methyl-N-(1,4,6-trimethyl-imidazo[4,5-c]pyridin-2-y1)-indazole-7-carboxamide], the results for the AC50 in experiment [1] (setting [6]) and in experiment [2] (setting [8]) were 1 to 10 µM and more than 10 µM, respectively. The IC50 in experiment [1] (setting [7]) was 1 to 10 µM; in experiment [2] (setting [9]), more than 10 µM; in experiment [3] it was 1 to 10 µM; in experiment [4] it was more than 10 µM. In experiment [5], the concentration for 50% growth inhibition (GI50) is more than 10 µM.

With `C[C@H]1CN(c2ccc(C(=O)Nc3cc(F)c4nn(C)cc4c3)c3nn(C)cc23)C[C@H](C)N1` [Compound 584, 4-[(3S, 5S)-3,5-dimethylpiperazin-1-yl]-N-(7-fluoro-2-methyl-indazol-5-yl)-2-methyl-indazole-7-carboxamide], the results for the AC50 in experiment [1] (setting [6]) and in experiment [2] (setting [8]) were 1 to 10 µM and less than 0.1 µM, respectively. The IC50 in experiment [1] (setting [7]) is 1 to 10 µM; in experiment [2] (setting [9]), less than 0.1 µM; in experiment [3], 1 to 10 µM; in experiment [4], less than 0.1 µM. Moreover, the GI50 in experiment [5] was in the range of 0.1 to 1 µM.

`Cc1cn2cc(NC(=O)c3ccc(N4C[C@H](C)N[C@@H](C)C4)c4cn(C)nc34)cc(F)c2n1` [Compound 588, 4-[(3S, 5S)-3,5-dimethylpiperazin-1-yl]-N-(8-fluoro-2-methyl-imidazo[1,2-a]pyridin-6-yl)-2-methyl-indazole-7-carboxamide]: the AC50 was 1 to 10 µM in experiment [1] (setting [6]) and less than 0.1 µM in experiment [2] (setting [8]). The IC50 was 1 to 10 µM in experiment [1] (setting [7]), less than 0.1 µM in experiment [2] (setting [9]), 1 to 10 µM in experiment [3] and less than 0.1 µM in experiment [4]. Moreover, the GI50 in experiment [5] lay in the range of 0.1 to 1 µM.

On to `CNC1CCC(Oc2ccc(C(=O)Nc3cn4cc(C)nc(C)c4n3)c3nn(C)cc23)CC1` (stereo not drawn) [Compound 592], for which the AC50 in experiment [1] (setting [6]) and in experiment [2] (setting [8]) was 1 to 10 µM each time. The IC50 in experiment [1] (setting [7]), in experiment [2] (setting [9]), in experiment [3] and in experiment [4] was 1 to 10 µM each time. For the same compound, the GI50 in experiment [5] fell in the range of 1 to 10 µM.

For `CNC1CCCC(Oc2ccc(C(=O)Nc3cn4cc(C)nc(C)c4n3)c3nn(C)cc23)C1` (stereo not drawn) [Compound 593], the AC50 in experiment [1] (setting [6]) and in experiment [2] (setting [8]) was more than 10 µM in each case. For the same compound, the IC50 in experiment [1] (setting [7]), in experiment [2] (setting [9]), in experiment [3] and in experiment [4] was more than 10 µM each time. The GI50 in experiment [5] was more than 10 µM.

As for `CNC1CCC(Oc2ccc(C(=O)Nc3cn4cc(C)nc(C)c4n3)c3nn(C)cc23)C1` (stereo not drawn) [Compound 594], the AC50 in experiment [1] (setting [6]) and in experiment [2] (setting [8]) was more than 10 µM throughout. Moreover, the IC50 in experiment [1] (setting [7]), in experiment [2] (setting [9]), in experiment [3] and in experiment [4] was more than 10 µM in each case. In addition, the GI50 in experiment [5] was more than 10 µM.

With `CNC1CCC(Oc2ccc(C(=O)Nc3cc4cn(C)nc4cc3OC)c3nn(C)cc23)CC1` (stereo not drawn) [Compound 595], the AC50 in experiment [1] (setting [6]) and in experiment [2] (setting [8]) was more than 10 µM each time. Also, the IC50 in experiment [1] (setting [7]) is 1 to 10 µM; in experiment [2] (setting [9]), more than 10 µM; in experiment [3], 1 to 10 µM; in experiment [4], more than 10 µM. For the same compound, the GI50 in experiment [5] fell in the range of 1 to 10 µM.

For `CNC1CCCC(Oc2ccc(C(=O)Nc3cc4cn(C)nc4cc3OC)c3nn(C)cc23)C1` (stereo not drawn) [Compound 596], the AC50 in experiment [1] (setting [6]) and in experiment [2] (setting [8]) was 1 to 10 µM each time. Also, the IC50 in experiment [1] (setting [7]), in experiment [2] (setting [9]), in experiment [3] and in experiment [4] was 1 to 10 µM in each case. In addition, in experiment [5], the GI50 was in the range of 1 to 10 µM.

As for `Cc1cc2c(nc(NC(=O)c3ccc(N4CCC(NC5CC5)CC4)c4cn(C)nc34)n2C)c(C)n1` [Compound 597, 4-[4-(cyclopropylamino)-1-piperidyl]-2-methyl-N-(1,4,6-trimethylimidazo[4,5-c]-pyridin-2-yl)indazole-7-carboxamide], the AC50 in experiment [1] (setting [6]) and in experiment [2] (setting [8]) was more than 10 µM in each case. The IC50 in experiment [1] (setting [7]), in experiment [2] (setting [9]), in experiment [3] and in experiment [4] was more than 10 µM in each case. For the same compound, the GI50 in experiment [5] fell in the range of 1 to 10 µM.

Turning to `COc1nc2nccn2cc1NC(=O)c1ccc(N2CCC(NC3CC3)CC2)c2cn(C)nc12` [Compound 598, 4-[4-(cyclopropylamino)-1-piperidyl]-N-(7-methoxy-imidazo[1,2-a]pyrimidin-6-yl)-2-methyl-indazole-7-carboxamide], the values for the AC50 in experiment [1] (setting [6]) and in experiment [2] (setting [8]) were more than 10 µM and 1 to 10 µM, respectively. Moreover, the IC50 is more than 10 µM in experiment [1] (setting [7]), 1 to 10 µM in experiment [2] (setting [9]), more than 10 µM in experiment [3] and 1 to 10 µM in experiment [4]. Moreover, the GI50 in experiment [5] lay in the range of 1 to 10 µM.

Regarding `Cc1cn2cc(NC(=O)c3ccc(N4CCC(NC5CC5)CC4)c4cn(C)nc34)nc2c(CN(C)C)n1` [Compound 600, 4-(4-(cyclopropylamino)piperidin-1-yl)-N-(8-((dimethylamino)methyl)-6-methylimidazo[1,2-a]pyrazin-2-yl)-2-methyl-2H-indazole-7-carboxamide bis(2,2,2-trifluoroacetate)], the AC50 in experiment [1] (setting [10]) and in experiment [2] (setting [12]) was more than 10 µM in each case. The IC50 in experiment [1] (setting [11]), in experiment [2] (setting [13]), in experiment [3] and in experiment [4] was more than 10 µM each time. Besides, the GI50 in experiment [5] lay within 1 to 10 µM.

`Cc1cn2cc(NC(=O)c3ccc(N4CCCC(OC5CNC5)C4)c4cn(C)nc34)nc2c(C)n1` (stereo not drawn) [Compound 601]: the AC50 was more than 10 µM in experiment [1] (setting [10]) and 1 to 10 µM in experiment [2] (setting [12]). Further, the IC50 in experiment [1] (setting [11]), in experiment [2] (setting [13]), in experiment [3] and in experiment [4] was more than 10 µM in each case. Besides, in experiment [5], the GI50 was more than 10 µM.

With `COc1cc2nn(C)cc2cc1NC(=O)c1ccc(N2CCCC(OC3CNC3)C2)c2cn(C)nc12` (stereo not drawn) [Compound 602], the AC50 in experiment [1] (setting [10]) and in experiment [2] (setting [12]) was more than 10 µM throughout. Besides, the IC50 in experiment [1] (setting [11]), in experiment [2] (setting [13]), in experiment [3] and in experiment [4] was more than 10 µM in each case. Also, the GI50 in experiment [5] was more than 10 µM.

These data come from US20260285853A1, “COMPOUNDS AND METHODS FOR MODULATING SPLICING” (REMIX THERAPEUTICS INC., priority 2023, published 2026).
